Values joined by “and” are separate entries in the source; they are usually repeats but may differ in a detail not shown here. Identical values can stand only once.
How the values were obtained:
Recombinant TDO = target: T1, Recombinant TDO (Homo sapiens, UniProt P48775); assay: Biochemical assay for TDO (NFK GreenScreen); details: 50 nM TDO, 200 μM L-tryptophan
T1 construct: Recombinant TDO (Seegers, N., et al.) and all other assay components were diluted in TDO reaction buffer
Protocol: Biochemical Assay for TDO
The NFK GreenScreen™ assay technology was also used to determine the inhibitory activity of compounds on TDO (Seegers, N., et al., J. Biol. Screen. 19: 1266; 2014). Compounds were serially diluted in DMSO and finally in TDO reaction buffer, consisting of 100 mM NaH2PO4, pH 7.0, supplemented with 0.02% Tween-20 (cat. No. P7949; Sigma Aldrich). Recombinant TDO (Seegers, N., et al.) and all other assay components were diluted in TDO reaction buffer. 10 μl of compound solution and 20 μl of enzyme solution supplemented with 200 μM ascorbic acid were combined in the well of a black 384-well plate (cat. no. 3573; Corning, Corning, N.Y., USA), and incubated for 60 min at room temperature. Subsequently, 10 μl of 0.8 mM of the substrate L-tryptophan was added, i.e., the final concentration of L-tryptophan was 200 μM. The DMSO concentration in the assay was 0.3%. The concentration of TDO was 50 nM. Incubation was continued for 15 min at room temperature. Then, 10 μl of NFK Green™ (NTRC, Oss, The Netherlands) was added, the plate was sealed, and the reaction was developed for 3 hours at 37° C. To determine the production of N-formyl kynurenine (NFK), the seal was removed and fluorescence was read on an EnVision multimode reader (Perkin Elmer, Waltham, Mass., USA). IC50 were calculated using XLfit™ software (ID Business Solutions, Ltd., Surrey, U.K.).

[1] = target: T2, TDO in SW48 colorectal carcinoma cells (Homo sapiens, UniProt P48775); assay: Cell-based assay for TDO in SW48 colorectal carcinoma cells (NFK GreenScreen); details: 18 hours with L-tryptophan, read-out: IC50 on TDO in cells
T2 construct: Endogenous expression of TDO has been determined in a variety of cancer cell lines; host or cells: SW48 colorectal carcinoma cells
T2 sequence (P48775 whole entry): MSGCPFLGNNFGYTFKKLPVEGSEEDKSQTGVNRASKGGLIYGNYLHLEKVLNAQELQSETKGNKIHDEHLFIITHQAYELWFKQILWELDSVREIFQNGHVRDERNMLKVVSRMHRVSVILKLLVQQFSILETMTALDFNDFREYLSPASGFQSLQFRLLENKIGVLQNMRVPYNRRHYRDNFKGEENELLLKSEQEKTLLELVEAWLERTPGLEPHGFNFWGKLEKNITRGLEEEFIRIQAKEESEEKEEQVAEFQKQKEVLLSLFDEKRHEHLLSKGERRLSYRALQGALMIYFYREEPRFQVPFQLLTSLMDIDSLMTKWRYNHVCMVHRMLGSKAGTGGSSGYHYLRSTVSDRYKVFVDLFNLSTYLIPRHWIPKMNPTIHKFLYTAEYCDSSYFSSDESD
Protocol: The biological activity of TDO inhibitors can be measured by applying above detection methods to cells that are treated with test compound. Endogenous expression of TDO has been determined in a variety of cancer cell lines (Pilotte et al.; Seegers, et al.), or TDO can be expressed in cells that lack endogenous TDO by transfection of an expression vector containing TDO cDNA. […] A preferred assay is the cell-based NFK GreenScreen™ assay (Seegers et al, supra), which measures the cellular inhibitory activity of compounds on TDO. […] No. V9920). Cell-Based Assay for TDO The NFK GreenScreen™ assay technology was also used to determine the inhibitory activity of compounds on TDO in SW48 colorectal carcinoma cells (Seegers, N., et al., J. Biol. Screen. 19: 1266; 2014). […] Compounds were dissolved in DMSO and diluted in RPMI 1640. Final DMSO concentration in the assay was 0.4% (v/v). Eight thousand cells per well in 40 μl were seeded in a black 384-well tissue plate (cat. No. 781086; […] To determine NFK levels, 12 μl NFK Green™ (NTRC, Oss, The Netherlands) was added to each well, and the plate was sealed and incubated for 4 hours at 37° C. Fluorescence was measured on an EnVision multimode reader (Perkin Elmer, Waltham, Mass., USA).

CYP2D6 = CYP2D6 (Homo sapiens, UniProt P10635); assay: P450-Glo CYP2D6 Luc-IP assay
Sequence of CYP2D6 (P10635 whole entry): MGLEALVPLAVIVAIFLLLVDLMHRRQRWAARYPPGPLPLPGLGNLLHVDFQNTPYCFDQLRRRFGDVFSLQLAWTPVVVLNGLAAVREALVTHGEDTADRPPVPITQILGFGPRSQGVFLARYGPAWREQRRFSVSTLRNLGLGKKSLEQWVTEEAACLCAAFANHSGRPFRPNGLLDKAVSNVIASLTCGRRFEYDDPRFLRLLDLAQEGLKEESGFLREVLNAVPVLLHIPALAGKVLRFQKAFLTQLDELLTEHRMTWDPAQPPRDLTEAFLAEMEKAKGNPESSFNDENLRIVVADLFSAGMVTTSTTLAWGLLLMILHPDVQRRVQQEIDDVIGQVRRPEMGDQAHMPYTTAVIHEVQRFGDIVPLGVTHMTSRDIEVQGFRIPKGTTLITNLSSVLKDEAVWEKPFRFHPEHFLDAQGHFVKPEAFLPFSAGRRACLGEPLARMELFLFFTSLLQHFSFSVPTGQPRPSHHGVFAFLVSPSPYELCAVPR

CYP3A4 = CYP3A4 (Homo sapiens, UniProt P08684); assay: P450-Glo CYP3A4 luciferin isopropylacetal (Luc-IP) assay
Sequence of CYP3A4 (P08684 whole entry): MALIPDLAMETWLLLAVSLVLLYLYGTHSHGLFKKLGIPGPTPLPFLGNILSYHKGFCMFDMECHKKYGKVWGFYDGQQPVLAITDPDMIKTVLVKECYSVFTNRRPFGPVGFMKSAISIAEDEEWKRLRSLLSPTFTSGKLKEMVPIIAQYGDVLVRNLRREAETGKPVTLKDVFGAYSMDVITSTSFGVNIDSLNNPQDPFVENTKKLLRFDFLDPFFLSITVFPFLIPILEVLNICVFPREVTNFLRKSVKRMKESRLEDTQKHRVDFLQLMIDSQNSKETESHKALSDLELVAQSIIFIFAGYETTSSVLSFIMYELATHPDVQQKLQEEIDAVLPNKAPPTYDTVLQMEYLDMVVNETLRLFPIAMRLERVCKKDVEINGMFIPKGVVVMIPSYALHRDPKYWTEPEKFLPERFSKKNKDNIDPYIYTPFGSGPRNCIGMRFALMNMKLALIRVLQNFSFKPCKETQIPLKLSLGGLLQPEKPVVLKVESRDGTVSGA

T1 sequence (P48775 whole entry): as the sequence (P48775 whole entry) above

IC50 (Recombinant TDO)	IC50 [1]	IC50 (CYP2D6)	IC50 (CYP3A4)	Compound
1 to 5 µM		> 10 µM	> 10 µM	CC(C)NC(=S)N1CCC[C@@H](CNC(=O)c2ccc(-c3c[nH]c4cc(F)ccc34)cc2)C1 [Example 92, 4-(6-Fluoro-1H-indol-3-yl)-N-[[(3S)-1-(isopropylcarbamothioyl)-3-piperidyl]methyl]benzamide]
1 to 5 µM		> 10 µM	> 10 µM	O=C(CCc1ccccc1)Nc1ccc(-c2c[nH]c3cc(F)ccc23)cc1 [Example 96, N-[4-(6-fluoro-1H-indol-3-yl)phenyl]-3-phenyl-propanamide]
< 1 µM		> 10 µM	> 10 µM	O=C(CC1(O)CCCC1)Nc1ccc(-c2c[nH]c3cc(F)ccc23)cc1 [Example 98, N-[4-(6-fluoro-1H-indol-3-yl)phenyl]-2-(1-hydroxycyclopentyl)acetamide]
1 to 5 µM		> 10 µM	> 10 µM	Cc1cc(CC(=O)Nc2ccc(-c3c[nH]c4cc(F)ccc34)cc2)no1 [Example 99, N-[4-(6-Fluoro-/H-indol-3-yl)phenyl]-2-(5-methylisoxazol-3-yl)acetamide]
	≤ 0.5 µM and 0.2 to 0.5 µM	> 10 µM	> 10 µM	Cn1cc(CCC(=O)Nc2ccc(-c3c[nH]c4cc(F)ccc34)cc2)cn1 [Example 107, N-[4-(6-fluoro-1H-indol-3-yl)phenyl]-3-(1-methylpyrazol-4-yl)propanamide]
1 to 5 µM		> 10 µM	> 10 µM	CN1CC(C(=O)Nc2ccc(-c3c[nH]c4cc(F)ccc34)cc2)CCC1=O (stereo not drawn) [Example 108, N-[4-(6-fluoro-1H-indol-3-yl)phenyl]-1-methyl-6-oxo-piperidine-3-carboxamide]
	≤ 0.5 µM and 0.2 to 0.5 µM	> 10 µM	> 10 µM	CS(=O)(=O)N1CCCC(NC(=O)c2ccc(-c3c[nH]c4cc(F)ccc34)cc2)C1 (stereo not drawn) [Example 120, 4-(6-Fluoro-1H-indol-3-yl)-N-(1-methylsulfonyl-3-piperidyl)benzamide]
< 1 µM		> 10 µM	> 10 µM	CCOC(=O)N1CCCC(NC(=O)c2ccc(-c3c[nH]c4cc(F)ccc34)cc2)C1 (stereo not drawn) [Example 121, Ethyl 3-[[4-(6-fluoro-1H-indol-3-yl)benzoyl]amino]piperidine-1-carboxylate]
1 to 5 µM		5 to 10 µM	5 to 10 µM	Cc1cc(C(=O)N[C@@H](C)CO)ccc1-c1c[nH]c2cc(F)ccc12 [Example 126, 4-(6-Fluoro-1H-indol-3-yl)-N-[(1S)-2-hydroxy-1-methyl-ethyl]-3-methyl-benzamide]
1 to 5 µM		5 to 10 µM	5 to 10 µM	Cc1cc(C(=O)N[C@H](C)CO)ccc1-c1c[nH]c2cc(F)ccc12 [Example 128, 4-(6-Fluoro-1H-indol-3-yl)-N-[(1R)-2-hydroxy-1-methyl-ethyl]-3-methyl-benzamide]
< 1 µM		> 10 µM	5 to 10 µM	Cc1cc(C(=O)N[C@H]2CCCNC2)ccc1-c1c[nH]c2cc(F)ccc12 [Example 130, 4-(6-Fluoro-1H-indol-3-yl)-3-methyl-N-[(3S)-3-piperidyl]benzamide]
< 1 µM		> 10 µM	> 10 µM	COC(=O)CNC(=O)c1ccc(-c2c[nH]c3cc(F)ccc23)cc1 [Example 138, Methyl 2-[[4-(6-fluoro-1H-indol-3-yl)benzoyl]amino]acetate]

The remaining lines, values behind:

Compound	IC50 (Recombinant TDO)	IC50 [1]	IC50 (CYP2D6)	IC50 (CYP3A4)
CC(CN(C)C)NC(=O)c1ccc(-c2c[nH]c3cc(F)ccc23)cc1 (stereo not drawn) [Example 1, N-[2-(dimethylamino)-1-methyl-ethyl]-4-(6-fluoro-1H-indol-3-yl)benzamide]	< 1 µM	≤ 0.2 µM	> 10 µM	> 10 µM
CC(C)NC(=O)c1ccc(-c2c[nH]c3cc(F)ccc23)cc1 [Example 2, 4-(6-Fluoro-1H-indol-3-yl)-N-isopropyl-benzamide]	< 1 µM	≤ 0.2 µM	> 10 µM	> 10 µM
CC(C)[C@@H](CO)NC(=O)c1ccc(-c2c[nH]c3cc(F)ccc23)cc1 [Example 3, 4-(6-Fluoro-1H-indol-3-yl)-N-[(1S)-1-(hydroxymethyl)-2-methyl-propyl]benzamide]	< 1 µM	≤ 0.5 µM and 0.2 to 0.5 µM	> 10 µM	> 10 µM
CC(=O)Nc1ccc(-c2c[nH]c3cc(F)ccc23)cc1 [Example 4, N-[4-(6-Fluoro-1H-indol-3-yl)phenyl]acetamide]	< 1 µM	≤ 0.5 µM and 0.2 to 0.5 µM	> 10 µM	> 10 µM
O=C(NCCO)c1ccc(-c2c[nH]c3cc(F)ccc23)cc1 [Example 10, 4-(6-Fluoro-1H-indol-3-yl)-N-(2-hydroxyethyl)benzamide]	< 1 µM	≤ 0.5 µM and 0.2 to 0.5 µM	5 to 10 µM	> 10 µM
N#CC1(NC(=O)c2ccc(-c3c[nH]c4cc(F)ccc34)cc2)CC1 [Example 12, N-(1-cyanocyclopropyl)-4-(6-fluoro-1H-indol-3-yl)benzamide]	< 1 µM	≤ 0.5 µM and 0.2 to 0.5 µM	> 10 µM	> 10 µM
O=C(NCC(F)(F)F)c1ccc(-c2c[nH]c3ccc(F)cc23)cc1 [Example 39, 4-(5-Fluoro-1H-indol-3-yl)-N-(2,2,2-trifluoroethyl)benzamide]	< 1 µM		> 10 µM	> 10 µM
C[C@@H](CO)NC(=O)c1ccc(-c2c[nH]c3ccc(F)cc23)cc1 [Example 40, 4-(5-Fluoro-1H-indol-3-yl)-N-[(1S)-2-hydroxy-1-methyl-ethyl]benzamide]	< 1 µM		> 10 µM	> 10 µM
O=C(N[C@H]1CCCNC1)c1ccc(-c2c[nH]c3ccc(F)cc23)cc1 [Example 41, 4-(5-Fluoro-1H-indol-3-yl)-N-[(3S)-3-piperidyl]benzamide]	< 1 µM		> 10 µM	> 10 µM
O=C(NOC(CO)CO)c1ccc(-c2c[nH]c3cc(F)ccc23)cc1 [Example 65, 4-(6-Fluoro-1H-indol-3-yl)-N-[2-hydroxy-1-(hydroxymethyl)ethoxy]benzamide]	< 1 µM		> 10 µM	5 to 10 µM
O=C(NOC[C@H](O)CO)c1ccc(-c2c[nH]c3cc(F)ccc23)cc1 [Example 67, N-[(2R)-2,3-dihydroxypropoxy]-4-(6-fluoro-1H-indol-3-yl)benzamide]	< 1 µM		> 10 µM	5 to 10 µM
Nc1ccn(C(=O)c2ccc(-c3c[nH]c4cc(F)ccc34)cc2)n1 [Example 85, (3-Aminopyrazol-1-yl)-[4-(6-fluoro-1H-indol-3-yl)phenyl]methanone]	1 to 5 µM		5 to 10 µM	> 10 µM
C[C@H](NC(=O)c1ccc(-c2c[nH]c3cc(F)ccc23)cc1)C(C)(C)C [Example 88, 4-(6-Fluoro-1H-indol-3-yl)-N-[(1S)-1,2,2-trimethylpropyl]benzamide]	1 to 5 µM		> 10 µM	> 10 µM
O=C(NCC1(O)CCCCC1)c1ccc(-c2c[nH]c3cc(F)ccc23)cc1 [Example 89, 4-(6-Fluoro-1H-indol-3-yl)-N-[(1-hydroxycyclohexyl)methyl]benzamide]	1 to 5 µM		> 10 µM	> 10 µM
NCCNC(=O)c1ccc(-c2c[nH]c3cc(F)ccc23)cc1 [Example 90, N-(2-aminoethyl)-4-(6-fluoro-1H-indol-3-yl)benzamide]	< 1 µM		> 10 µM	> 10 µM
O=C(NC[C@H]1CCNC1)c1ccc(-c2c[nH]c3cc(F)ccc23)cc1 [Example 91, 4-(6-Fluoro-1H-indol-3-yl)-N-[[(3S)-pyrrolidin-3-yl]methyl]benzamide]	< 1 µM		> 10 µM	5 to 10 µM
